Assay results: patent US9476099B2 (TRUSTEES OF DARTMOUTH COLLEGE, priority 2012, dated 2016)

Tested on: NT2/D1-R1 control and DNMT3B knockdown cells
Test: Genome-wide expression analysis with PAM clusters, control and DNMT3B knockdown cells (Tables 8-14)
Conditions: 10 nM, 3 days; NT2/D1-R1

## Nc1ncn([C@H]2C[C@H](O)[C@@H](CO)O2)c(=O)n1 [decitabine, 5-aza-deoxycytidine]
  Cluster 1: genes down-regulated by low dose decitabine in control cells but not in DNMT3B knockdown cells: 129 genes
  Cluster 2: genes induced by decitabine only in control cells and not in sh-DNMT3B cells: 337 genes
